The record followed here is PubChem BioAssay (NCI).

Holding throughout (assay): growth of human tumour cells (NCI), 48 h
Assay [1] concerns HCT-116 colon.
The test system of assay [2] is 786-0 renal.
The test system of assay [3] is SNB-19 CNS.
Assay [4] deals with OVCAR-4 ovarian.
For assay [5], the system named is UACC-62 melanoma.
Assay [6] relates to CAKI-1 renal.
For assay [7], the system named is NCI-H460 lung.
Assay [8] deals with SK-MEL-28 melanoma.
For assay [9], the system named is NCI-H522 lung.
For assay [10], the system named is K-562 leukemia.

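The compound was tested at five concentrations on cells cultured in 96-well plates, with a 48-hour exposure period. GI50 is the concentration that inhibits growth by half. At the TGI there is no net growth.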 Where a SMILES comes first, the peptide text is derived from it. Bridges are numbered along the chain shown (N, C = ends). Roman numbers before positions name the chains, in order. [ ]: non-standard residue; d: D form. The star is where a group is joined. Quinoxaline2carbonyl = O=C(c1cnc2ccccc2n1)*; NMeV = CN[CH](C(=O)O)C(C)C; NMeC = CN[CH](CS)C(=O)O

As to `O=C(O)COc1c(Cl)cc(Cl)c2cccnc12`, the TGI in [1], in [2], in [3], in assay [4], in [5] and in assay [6] was over 100 µM in each case. The TGI in assay [7], in assay [8], in [9] and in [10] was over 100 µM throughout.
`COc1ccc(OC)c(C2SCC(=O)N2NC(=O)C(O)c2ccccc2)c1` (stereo not given): the GI50 in assay [1], in assay [2], in [3], in assay [4], in assay [5] and in assay [6] was over 100 µM each time. The GI50 in assay [7], in [8], in assay [9] and in assay [10] was over 100 µM in each case. For the same compound, the TGI in [1], in assay [2], in assay [3], in [4], in assay [5] and in assay [6] was over 100 µM in each case. Moreover, the TGI in [7], in assay [8], in assay [9] and in [10] was over 100 µM in each case.
As for `CCN1C(=O)N(CC)C2C1NN=c1s/c(=C3\C(=O)N(CCc4ccccc4)c4ccccc43)c(=O)n12` (stereo not given), the GI50 in [1] is 0.347 µM; in [2] it was 1.04 µM; in [3] it was 0.845 µM; in [4] it was 1.13 µM; in [5], 0.637 µM; in assay [6], 0.65 µM. Further, the GI50 in assay [7] is 0.361 µM; in assay [8], 1.2 µM; in assay [9], 0.337 µM; in assay [10], 0.353 µM. Moreover, the TGI was 1.4 µM in assay [1]; 13.5 µM in [2]; 19.6 µM in assay [3]; over 100 µM in assay [4]; 11.5 µM in [5]; 3.11 µM in assay [6]. The TGI in assay [7] is 1.88 µM; in [8], over 28.4 µM; in [9] it was 3.95 µM; in [10] it was over 100 µM.
Turning to `Cn1cncc1CC1COC(=O)C1C(O)c1ccccc1` (stereo not given), the TGI in assay [1], in [2], in [3], in [4], in [5] and in assay [6] was over 100 µM each time. Also, the TGI in assay [7], in assay [8], in [9] and in [10] was over 100 µM each time.
Turning to `CC(=O)c1c(C(F)(F)F)n([O-])c2ccc(C)cc2[n+]1=O`, the GI50 was 3.89 µM in [1]; 1.47 µM in assay [2]; 6.03 µM in [3]; 4.88 µM in assay [4]; 1.31 µM in assay [5]; 3.46 µM in [6]. Further, the GI50 in assay [7] was 1.39 µM; in assay [8], 23.3 µM; in assay [9] it was 3 µM; in assay [10], 1.1 µM. Moreover, the TGI was over 41.1 µM in assay [1]; 4.7 µM in [2]; over 100 µM in assay [3]; over 100 µM in [4]; 3.34 µM in assay [5]; 24.6 µM in [6]. Further, the TGI in assay [7] was over 39.8 µM; in assay [8], over 100 µM; in assay [9], over 24.2 µM; in assay [10] it was 21.4 µM.
For `CSC(=S)N/N=C(\C)c1cccc(C)n1`, the TGI in assay [1] is 1.84 µM; in assay [2], 28 µM; in [3], over 100 µM; in assay [4], 19.5 µM; in [5], 3.67 µM; in assay [6], 23.6 µM. Moreover, the TGI was 9.79 µM in assay [7], 63.5 µM in assay [8], 3.01 µM in assay [9] and over 7.8 µM in assay [10].
Take `Cn1cc(-c2nonc2-c2cn(C)c3ccccc23)c2ccccc21`: the GI50 was 0.61 µM in assay [1]; 1.63 µM in [2]; 0.91 µM in assay [3]; 2.74 µM in [4]; 0.442 µM in assay [5]; 0.653 µM in [6]. Also, the GI50 in assay [7] was 0.579 µM; in assay [8], 4.68 µM; in assay [9] it was 0.402 µM; in assay [10], 0.342 µM. In addition, the TGI in [1], in assay [2], in [3], in assay [4], in [5] and in [6] was over 100 µM in each case. Further, the TGI in assay [7], in assay [8], in assay [9] and in assay [10] was over 100 µM in each case.
Take `COC(=O)C(C)(C)N=CN(C)C`: the TGI in assay [1], in assay [2], in assay [3], in assay [4], in assay [5] and in assay [6] was over 100 µM in each case. The TGI in assay [7], in assay [8], in [9] and in assay [10] was over 100 µM each time.
As for `CC1NC(=O)C(NC(=O)c2cnc3ccccc3n2)COC(=O)C(C(C)C)N(C)C(=O)C2CSSCC(C(=O)N(C)C(C(C)C)C(=O)OCC(NC(=O)c3cnc4ccccc4n3)C(=O)NC(C)C(=O)N2C)N(C)C1=O` (stereo not given) (I: Quinoxaline2carbonyl-SA[NMeC][NMeV] / II: Quinoxaline2carbonyl-SA[NMeC][NMeV]; ester I:1-II:C, I:C-II:1; disulfide I:3-II:3; configuration not given here), the TGI in assay [1] was 14 µM; in assay [2] it was 2.27 µM; in assay [3], over 100 µM; in assay [4], 0.254 µM; in assay [5], under 0.01 µM; in assay [6], over 48.7 µM. The TGI was 2.23 µM in [7], under 0.01 µM in [8], under 0.01 µM in [9] and over 51.5 µM in assay [10].
With `N#Cc1c(N)[nH]c2ccc(Sc3ccccc3)cc12`, the TGI in assay [1] was found to be 8.34 µM; in assay [2], 8.1 µM; in [3], 17.2 µM; in [4] it was 21.6 µM; in assay [5], 2.5 µM; in [6], 9.27 µM. In addition, the TGI in assay [7] came out at 21.6 µM; in assay [8], 17.4 µM; in assay [9] it was 3.21 µM; in assay [10] it was 9.71 µM.
